Data reported in patent US11318113B2, “Compounds for the treatment of diseases linked to mitochondrial reactive oxygen species (ROS) production” (OP2 DRUGS, priority 2015, dated 2022).

Columns and labels:
Sod2-KO mice = test: Sod2-KO mice: lifespan, heart SDH activity, liver Oil Red O staining; assay type: in vivo, mouse
From the text: Mice deficient in mitochondrial Mn-Superoxide Dismutase (Sod2-KO) on a CD1-background were used. This genetic alteration leads to an adverse phenotype and the death of animals at an average of 8 days old. Mitochondrial superoxide dismutase is a free radical scavenging enzyme which transforms superoxide (highly reactive) into hydrogen peroxide (less reactive), that could then cross mitochondrial membranes and be detoxified by matrix and cytosolic anti-oxidant systems. The aim of this study was to test if AOL could rescue the Sod2-KO phenotype through its activity on IQ superoxide production.
After birth, pups were genotyped (3 day-old) and the litter size was reduced to 6 pups per cage. Animals were then treated (AOL in Kolliphor®—5 mg/kg) or not (Kolliphor® only, noted KOL below). […] Two studies were conducted on two different generations from the same parents: lifespan; and succinate dehydrogenase activity in heart (SDH) and Oil Red O staining in liver. Animals were weighed and injected (intraperitoneal) daily.
Succinate dehydrogenase activity is a marker of superoxide in the mitochondrial matrix. Thus, a lack of SOD2 is associated with a decrease of SDH activity in heart. The aim of this experiment was to test whether or not AOL could restore SDH activity in KO mice.
However, the direct link between superoxide/hydrogen peroxide production and liver lipid accumulation is not established. The aim of the study was to test the potency of AOL to prevent liver lipid accumulation in Sod2-KO mice.
Animals were injected once a day from 3 days old until their death.
In this study, animals were treated daily (5 mg/kg) from day 3 to day 5. Heart and liver were harvested at day 6.

[1] = system: diet-induced obese (DIO) mice; test: Chronic ip treatment of diet-induced obese mice on high-fat diet; assay type: in vivo, mouse; settings: for AUC of blood glucose during insulin tolerance test (ITT): vehicle 12812.50±750.35
Experimental: The aim of the study was to determine whether the compound AOL, administered daily at the doses of 5 mg/kg and 10 mg/kg for up to five weeks by intraperitoneal (ip) daily administration in diet-induced obese (DIO) mice fed with a high-fat diet (HFD), modifies food intake, body weight, adiposity and glucose metabolism.
Mice were fed ad libitum with a HFD (60% of calories from fat, mostly lard) for twelve weeks before the pharmacological study begun. Animals received AOL or its vehicle by intraperitoneal (ip) administration and were maintained on HFD for the length of the study. Food intake and body weight were measured daily and recorded for up to three consecutive weeks.
Thirty 7-weeks-old male C57/B16J mice arrived to the laboratory on 25 Feb. 2016 and underwent a first in vivo body composition analysis (Echo MRI 900, EchoMRI Systems) after 1 week of adaptation to the experimental housing room. After this first MRI analysis, animals were fed a high-fat diet (HFD) ad libitum for a period of twelve weeks. Thereafter, they underwent a second MRI analysis and were distributed into 3 experimental groups of equivalent body weight and body composition.
Once the pharmacological treatment started (day 1), food intake (FI) and body weight (BW) were measured daily before the dark phase in animals housed in their home cage. Spillage of food was checked daily. The food consumed was calculated by subtracting the food left in the hoppers from the initial pre-weighted amount. FI and BW were measured for three consecutive weeks. Afterwards animals underwent a third MRI analysis in order to observe potential effects of the treatment onto the body composition (changes in fat and lean mass), followed by a glucose tolerance test (GTT) and an insulin tolerance test (ITT). Mice received daily ip administration of AOL or its vehicle for a total length of five weeks, until they were sacrificed.
A nuclear echo magnetic resonance imaging whole-body composition analyzer (Echo MRI 900; EchoMedical Systems) was used to repeatedly assess body fat and lean mass in conscious mice.
Animals were injected ip with 1.5 g/kg of D-Glucose (Sigma-Aldrich) for the GTT or with 0.5 U/kg of insulin (Humulin, Lilly, France) for the ITT. For the GTT and the ITT, animals were fasted overnight. The tests were conducted the following morning. Blood samples were taken from the tail vein at different time points (0, 15, 30, 60, 90 and 120 minutes after the ip administration of glucose or insulin) and glucose concentration was measured using glucose sticks (OneTouch Vita, Lifescan France, Issy les Moulineaux, France).
At sacrifice, blood samples were collected, blood glucose was rapidly assessed using glucose sticks and blood samples were then centrifuged at 3000 rpm for 15 minutes. The obtained plasma was stored at −80° C. for subsequent measurement of insulin, which was carried out by performing an ELISA (kit from Mercodia, Uppsala, Sweden), according to the manufacturer's instructions.

## COc1ccc(-c2cc(=S)ss2)cc1 [AOL, 5-(4-methoxyphenyl)-3H-1,2-dithiole-3-thione]
Sod2-KO mice; 5 mg/kg daily day 3 to day 5
  liver lipid droplets density (Oil Red O): decreased
  liver total lipid area (Oil Red O): able to restore
Sod2-KO mice; 5 mg/kg daily day 3 to day 5, not restored to WT levels
  SDH activity in heart: very slight increase
Sod2-KO mice; 5 mg/kg ip daily
  lifespan extension as compared to untreated mice: up to 2 days
  median lifespan and maximal lifespan: slightly improved
Sod2-KO mice; 5 mg/kg ip daily, day 8 to 12
  lower body weight and body weight gain of KO mice: tends to alleviate
[1]; 2-hour fasted mice, after five weeks of treatment
  blood glucose levels: tended to decrease
[1]; 5 and 10 mg/kg ip daily
  body weight and % change of body weight: did not have a significant effect
[1]; AOL 5 mg/kg
  AUC of blood glucose during insulin tolerance test (ITT): 15006.56±1139.69
[1]; AOL 10 mg/kg
  action of insulin on circulating glucose levels during an ITT: significantly blunted
[1]; AOL 10 mg/kg, p=0.0107 vs vehicle
  AUC of blood glucose during insulin tolerance test (ITT): 18168.33±1562.90
[1]; after three weeks, 5 and 10 mg/kg ip daily
  lean mass: did not have any effect
[1]; after three weeks, 5 and 10 mg/kg ip daily, p=0.13
  fat mass: tended to reduce
[1]; chronic daily administration, data not shown
  body weight and food intake: tended to decrease
